{
  "source": "patent US9302007B2",
  "about": "“Low surfactant iodine topical disinfectant” (DELAVAL HOLDING AB, priority 2011, dated 2016)",
  "origin": "cited, not measured here",
  "conditions": "room temperature",
  "data": [
    {"molecule": "II", "values": [
      {"measurement": "solubility of iodine in water", "value": "about 300 ppm"}
    ]}
  ]
}
